The target of the experiment is T1, HDAC6 enzyme (Homo sapiens, UniProt Q9UBN7).
T1 construct: prepared by transducing full length HDAC1 and HDAC6 genes into Sf-9 insect cells; GST; purchased SignalChem; host or cells: Sf-9 insect cells
T1 sequence (Q9UBN7 1-1215): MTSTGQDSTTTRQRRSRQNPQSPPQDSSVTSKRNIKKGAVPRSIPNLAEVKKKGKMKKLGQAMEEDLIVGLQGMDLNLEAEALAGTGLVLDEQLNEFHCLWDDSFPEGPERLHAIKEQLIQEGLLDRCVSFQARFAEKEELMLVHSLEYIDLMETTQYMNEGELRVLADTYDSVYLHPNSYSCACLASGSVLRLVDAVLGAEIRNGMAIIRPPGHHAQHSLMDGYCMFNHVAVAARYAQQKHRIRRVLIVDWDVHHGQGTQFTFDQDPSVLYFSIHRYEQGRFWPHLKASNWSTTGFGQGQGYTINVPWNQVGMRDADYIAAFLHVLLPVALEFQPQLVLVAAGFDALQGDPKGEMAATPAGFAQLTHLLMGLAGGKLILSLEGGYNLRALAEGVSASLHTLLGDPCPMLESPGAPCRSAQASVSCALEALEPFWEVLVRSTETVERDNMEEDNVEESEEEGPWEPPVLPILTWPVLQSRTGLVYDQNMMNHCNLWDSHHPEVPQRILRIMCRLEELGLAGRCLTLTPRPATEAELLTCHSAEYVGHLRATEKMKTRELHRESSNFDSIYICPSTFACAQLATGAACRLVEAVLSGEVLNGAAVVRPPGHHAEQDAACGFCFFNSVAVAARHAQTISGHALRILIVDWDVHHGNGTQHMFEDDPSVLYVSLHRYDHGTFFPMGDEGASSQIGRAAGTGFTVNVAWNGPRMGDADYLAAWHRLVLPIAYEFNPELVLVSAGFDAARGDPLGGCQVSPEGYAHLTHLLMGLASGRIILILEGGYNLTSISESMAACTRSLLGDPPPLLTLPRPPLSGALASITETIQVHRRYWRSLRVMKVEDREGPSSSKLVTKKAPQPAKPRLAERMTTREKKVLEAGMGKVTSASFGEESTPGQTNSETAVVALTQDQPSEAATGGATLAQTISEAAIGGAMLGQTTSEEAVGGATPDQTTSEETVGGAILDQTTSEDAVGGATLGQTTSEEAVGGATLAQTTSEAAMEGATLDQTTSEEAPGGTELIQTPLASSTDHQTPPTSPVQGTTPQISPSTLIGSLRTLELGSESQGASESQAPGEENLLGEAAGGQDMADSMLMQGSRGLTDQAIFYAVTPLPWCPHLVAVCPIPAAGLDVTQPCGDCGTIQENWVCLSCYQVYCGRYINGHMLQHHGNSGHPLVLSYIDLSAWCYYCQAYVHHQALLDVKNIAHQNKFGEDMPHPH
Kind of experiment: HDAC6 enzyme inhibitory assay (HDAC-Glo I/II Assay kit). Type of experiment: biochemical. The following applies: 1 μM test compound; read-out: HDAC6 inhibitory rate (%) (1 μM). Here is the method:
HDAC1 enzyme and HDAC6 enzyme each prepared by transducing full length HDAC1 and HDAC6 genes into Sf-9 insect cells and purifying by GST affinity column were purchased from SignalChem. Using these enzymes, HDAC1 and/or HDAC6 enzyme inhibitory activities of the compound of the present invention were evaluated. Enzymes were used after preserved at −70° C. HDAC1 or HDAC6 enzyme inhibitory activity of the compound of the present invention was measured using HDAC-Glo™ I/II Assay kit (Promega) according to the following experimental method. The test compound diluted with assay buffer (24 mM Tris-HCl (pH 7.5), 1 mM MgCl2, 0.35 mM KCl, 135 mM NaCl, 0.6 mM Glutathione, 0.01% Tween-20) was added to a 384-well plate by each 2 μL. Then, HDAC1 or HDAC6 enzyme solution diluted with assay buffer was added thereto by each 4 μL, and the plate was incubated at room temperature for 60 min. After incubated, HDAC substrate-Developer solution prepared according to Promega protocol attached to the assay kit was added to the 384-well plate by each 2 μL, and the enzyme reaction was started. After reacting at room temperature for 20 min, luminescence level was measured using plate reader Envision (PerkinElmer). The inhibitory activity of each compound was calculated as a relative activity value when luminescence level in wells without enzyme is considered as 100% inhibition.
As for `O=C(NC[C@@H]1COCCN1C(=O)C1CCOC1)c1ccc(-c2noc(C(F)(F)F)n2)cc1` (stereo partly drawn) [Example 151, N-(((3R)-4-(tetrahydrofuran-3-ylcarbonyl)morpholin-3-yl)methyl)-4-(5-(trifluoromethyl)-1,2,4-oxadiazol-3-yl)benzamide], the inhibition at 1 µM came out at 90%.
Under `Cn1nccc1C(=O)N1CCOC[C@H]1CNC(=O)c1ccc(-c2noc(C(F)(F)F)n2)cc1` [Example 154, N-(((3R)-4-((1-methyl-1H-pyrazol-5-yl)carbonyl)morpholin-3-yl)methyl)-4-(5-(trifluoromethyl)-1,2,4-oxadiazol-3-yl)benzamide] stands 89%; under `N#Cc1cc(F)cc(C(=O)N2CCOC[C@H]2CNC(=O)c2ccc(-c3noc(C(F)(F)F)n3)cc2)c1` [Example 156, N-(((3R)-4-(3-cyano-5-fluorobenzoyl)morpholin-3-yl)methyl)-4-(5-(trifluoromethyl)-1,2,4-oxadiazol-3-yl)benzamide], 95%; under `O=C(NCC1Cc2ccccc2N1C(=O)C1CC1)c1ccc(-c2noc(C(F)(F)F)n2)cc1` (stereo not drawn) [Example 166, N-((1-(cyclopropylcarbonyl)-2,3-dihydro-1H-indol-2-yl)methyl)-4-(5-(trifluoromethyl)-1,2,4-oxadiazol-3-yl)benzamide], 98%.
Under `O=C(NCC1Cc2ccccc2N1C(=O)c1cc(Cl)cc(Cl)c1)c1ccc(-c2noc(C(F)(F)F)n2)cc1` (stereo not drawn) [Example 168, N-((1-(3,5-dichlorobenzoyl)-2,3-dihydro-1H-indol-2-yl)methyl)-4-(5-(trifluoromethyl)-1,2,4-oxadiazol-3-yl)benzamide] stands 70%; under `O=C(NCC1c2ccccc2CN1C(=O)C1CC1)c1ccc(-c2noc(C(F)(F)F)n2)cc1` (stereo not drawn) [Example 169, N-((2-(cyclopropylcarbonyl)-2,3-dihydro-1H-isoindol-1-yl)methyl)-4-(5-(trifluoromethyl)-1,2,4-oxadiazol-3-yl)benzamide], 84%.
For the compound `O=C(NCC1c2ccccc2CN1C(=O)c1ccccc1)c1ccc(-c2noc(C(F)(F)F)n2)cc1` (stereo not drawn) [Example 170, N-((2-benzoyl-2,3-dihydro-1H-isoindol-1-yl)methyl)-4-(5-(trifluoromethyl)-1,2,4-oxadiazol-3-yl)benzamide], the inhibition at 1 µM was 80%.
The value for `O=C(NCC1c2ccccc2CN1C(=O)c1cc(Cl)cc(Cl)c1)c1ccc(-c2noc(C(F)(F)F)n2)cc1` (stereo not drawn) [Example 171, N-((2-(3,5-dichlorobenzoyl)-2,3-dihydro-1H-isoindol-1-yl)methyl)-4-(5-(trifluoromethyl)-1,2,4-oxadiazol-3-yl)benzamide] was 66%; that for `O=C(NCC1Cc2ccccc2CN1C(=O)C1CC1)c1ccc(-c2noc(C(F)(F)F)n2)cc1` (stereo not drawn) [Example 174, N-((2-(cyclopropylcarbonyl)-1,2,3,4-tetrahydroisoquinolin-3-yl)methyl)-4-(5-(trifluoromethyl)-1,2,4-oxadiazol-3-yl)benzamide] was 94%; that for `O=C(NCC1Cc2ccccc2CN1C(=O)c1cc(Cl)cc(Cl)c1)c1ccc(-c2noc(C(F)(F)F)n2)cc1` (stereo not drawn) [Example 176, N-((2-(3,5-dichlorobenzoyl)-1,2,3,4-tetrahydroisoquinolin-3-yl)methyl)-4-(5-(trifluoromethyl)-1,2,4-oxadiazol-3-yl)benzamide] was 82%.
Under `O=C(NCC1COCCN1C(=O)c1ccccc1)c1ccc(-c2noc(C(F)(F)F)n2)nc1` (stereo not drawn) [Example 180, N-((4-benzoylmorpholin-3-yl)methyl)-6-(5-(trifluoromethyl)-1,2,4-oxadiazol-3-yl)nicotinamide] stands 91%; under `O=C(NC[C@H]1COCCN1C(=O)c1cccc(F)c1)c1ccc(-c2noc(C(F)(F)F)n2)cn1` [Example 185, N-(((3S)-4-(3-fluorobenzoyl)morpholin-3-yl)methyl)-5-(5-(trifluoromethyl)-1,2,4-oxadiazol-3-yl)pyridine-2-carboxamide], 97%; under `O=C(NC[C@H]1COCCN1C(=O)c1cc(F)cc(F)c1)c1ccc(-c2noc(C(F)(F)F)n2)cn1` [Example 186, N-(((3S)-4-(3,5-difluorobenzoyl)morpholin-3-yl)methyl)-5-(5-(trifluoromethyl)-1,2,4-oxadiazol-3-yl)pyridine-2-carboxamide], 99%.
For the compound `N#Cc1ccccc1C(=O)N1CCOC[C@@H]1CNC(=O)c1ccc(-c2noc(C(F)(F)F)n2)cn1` [Example 187, N-(((3S)-4-(2-cyanobenzoyl)morpholin-3-yl)methyl)-5-(5-(trifluoromethyl)-1,2,4-oxadiazol-3-yl)pyridine-2-carboxamide], the inhibition at 1 µM came to 94%.
For `N#Cc1cccc(C(=O)N2CCOC[C@@H]2CNC(=O)c2ccc(-c3noc(C(F)(F)F)n3)cn2)c1` [Example 188, N-(((3S)-4-(3-cyanobenzoyl)morpholin-3-yl)methyl)-5-(5-(trifluoromethyl)-1,2,4-oxadiazol-3-yl)pyridine-2-carboxamide], the inhibition at 1 µM worked out at 95%.
As for `N#Cc1cc(F)cc(C(=O)N2CCOC[C@@H]2CNC(=O)c2ccc(-c3noc(C(F)(F)F)n3)cn2)c1` [Example 189, N-(((3S)-4-(3-cyano-5-fluorobenzoyl)morpholin-3-yl)methyl)-5-(5-(trifluoromethyl)-1,2,4-oxadiazol-3-yl)pyridine-2-carboxamide], the inhibition at 1 µM turned out to be 95%.
Under `N#Cc1ccc(C(=O)N2CCOC[C@@H]2CNC(=O)c2ccc(-c3noc(C(F)(F)F)n3)cn2)cc1` [Example 190, N-(((3S)-4-(4-cyanobenzoyl)morpholin-3-yl)methyl)-5-(5-(trifluoromethyl)-1,2,4-oxadiazol-3-yl)pyridine-2-carboxamide] stands 95%.
The value for `O=C(NC[C@H]1COCCN1C(=O)c1ccncc1)c1ccc(-c2noc(C(F)(F)F)n2)cn1` [Example 191, N-(((3S)-4-isonicotinoylmorpholin-3-yl)methyl)-5-(5-(trifluoromethyl)-1,2,4-oxadiazol-3-yl)pyridine-2-carboxamide] was 96%.
For `Cn1nccc1C(=O)N1CCOC[C@@H]1CNC(=O)c1ccc(-c2noc(C(F)(F)F)n2)cn1` [Example 192, N-(((3S)-4-((1-methyl-1H-pyrazol-5-yl)carbonyl)morpholin-3-yl)methyl)-5-(5-(trifluoromethyl)-1,2,4-oxadiazol-3-yl)pyridine-2-carboxamide], the inhibition at 1 µM was determined as 94%.
As for `Cc1ncsc1C(=O)N1CCOC[C@@H]1CNC(=O)c1ccc(-c2noc(C(F)(F)F)n2)cn1` [Example 196, N-(((3S)-4-((4-methyl-1,3-thiazol-5-yl)carbonyl)morpholin-3-yl)methyl)-5-(5-(trifluoromethyl)-1,2,4-oxadiazol-3-yl)pyridine-2-carboxamide], the inhibition at 1 µM was determined as 96%.
In the case of `O=C(NC[C@H]1COCCN1C(=O)c1cccs1)c1ccc(-c2noc(C(F)(F)F)n2)cn1` [Example 197, N-(((3S)-4-(2-thienylcarbonyl)morpholin-3-yl)methyl)-5-(5-(trifluoromethyl)-1,2,4-oxadiazol-3-yl)pyridine-2-carboxamide], the inhibition at 1 µM came out at 97%.

For the origin of these results see patent US10081624B2, “Heterocyclic compound” (Takeda Pharmaceutical Company Limited, priority 2014, dated 2018).
